Results as given in the supplement of paper PMC10307832.

Tests used:
Test in all cases: relative viability (nuclei count vs DMSO), 5 days (fraction); higher = more cells survive
Afatinib + Vorinostat = compound: CN(C)C/C=C/C(=O)Nc1cc2c(Nc3ccc(F)c(Cl)c3)ncnc2cc1O[C@H]1CCOC1 [Afatinib] + O=C(CCCCCCC(=O)Nc1ccccc1)NO [Vorinostat] (partner 1 µM)
In short: (§1)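 A single step with final 0.05% Triton X-100, 1% formaldehyde and 1 ug/ml Hoechst fixed the cells and stained nuclei 5 days after treatment. Lung cancer cell lines in 1536-well plates had been treated by pin tool the day after seeding with one drug alone or a fixed anchor-drug dose plus five library-drug doses (not always all listed) in √10 steps, and nuclei were counted on 4× images. Relative viability is the ratio of nuclei in treated wells to nuclei in vehicle wells, taken as the median of duplicate plates.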

Afatinib + Dasatinib = compound: CN(C)C/C=C/C(=O)Nc1cc2c(Nc3ccc(F)c(Cl)c3)ncnc2cc1O[C@H]1CCOC1 [Afatinib] + Cc1nc(Nc2ncc(C(=O)Nc3c(C)cccc3Cl)s2)cc(N2CCN(CCO)CC2)n1 [Dasatinib] (partner 0.075 µM)
In short: as §1

Afatinib + Pictilisib = compound: CN(C)C/C=C/C(=O)Nc1cc2c(Nc3ccc(F)c(Cl)c3)ncnc2cc1O[C@H]1CCOC1 [Afatinib] + CS(=O)(=O)N1CCN(Cc2cc3nc(-c4cccc5[nH]ncc45)nc(N4CCOCC4)c3s2)CC1 [Pictilisib] (partner 1 µM)
In short: as §1

Afatinib + Crizotinib = compound: CN(C)C/C=C/C(=O)Nc1cc2c(Nc3ccc(F)c(Cl)c3)ncnc2cc1O[C@H]1CCOC1 [Afatinib] + C[C@@H](Oc1cc(-c2cnn(C3CCNCC3)c2)cnc1N)c1c(Cl)ccc(F)c1Cl [Crizotinib] (partner 1 µM)
In short: as §1

Cell Line	relative viability (Afatinib + Vorinostat; first compound 0.005 µM)	relative viability (Afatinib + Vorinostat; first compound 0.01581 µM)	relative viability (Afatinib + Vorinostat; first compound 0.05 µM)	relative viability (Afatinib + Vorinostat; first compound 0.1581 µM)	relative viability (Afatinib + Vorinostat; first compound 0.5 µM)	relative viability (Afatinib + Dasatinib; first compound 0.005 µM)	relative viability (Afatinib + Dasatinib; first compound 0.01581 µM)	relative viability (Afatinib + Dasatinib; first compound 0.05 µM)	relative viability (Afatinib + Dasatinib; first compound 0.1581 µM)	relative viability (Afatinib + Dasatinib; first compound 0.5 µM)	relative viability (Afatinib + Pictilisib; first compound 0.005 µM)	relative viability (Afatinib + Pictilisib; first compound 0.05 µM)	relative viability (Afatinib + Pictilisib; first compound 0.1581 µM)	relative viability (Afatinib + Pictilisib; first compound 0.5 µM)	relative viability (Afatinib + Crizotinib; first compound 0.005 µM)	relative viability (Afatinib + Crizotinib; first compound 0.01581 µM)	relative viability (Afatinib + Crizotinib; first compound 0.05 µM)	relative viability (Afatinib + Crizotinib; first compound 0.1581 µM)	relative viability (Afatinib + Crizotinib; first compound 0.5 µM)	relative viability (Afatinib + Pictilisib; first compound 0.01581 µM)
NCI-H647	0.493	0.513	0.595	0.523	0.524	0.24	0.141	0.201	0.192	0.172	0.407	0.457	0.459	0.453	1.26	1.13	1.01	1.04	1.19	
NCI-H650	0.469	0.395	0.551	0.515	0.316	0.559	0.428	0.481	0.599	0.411	0.889	1	1.09	0.924	0.856	0.674	0.72	1.01	0.683	0.793
NCI-H661	0.867	0.738	0.755	0.64	0.63	0.858	0.527	0.375	0.341	0.332	0.386	0.318	0.313	0.249	1.25	1.03	0.996	0.838	0.773	0.301
NCI-H727	1.08	0.953	1	0.906	0.956	0.366		0.204	0.282	0.249	0.315	0.306	0.279	0.281	0.804	0.802	0.53	0.541	0.583	0.401
NCI-H838	0.695	0.74	0.74	0.639	0.801	0.33	0.319	0.331	0.203	0.269	0.441	0.453	0.497	0.524	0.782	0.87	0.901	0.791	0.937	0.462
NCI-H1355	0.597	0.585	0.545	0.553	0.552	0.665	0.742	0.68	0.642	0.643	0.39	0.482	0.36	0.21	1.16	0.983	1.01	0.792	0.816	0.467
NCI-H1437	0.841	0.831	0.967	0.776	0.908	0.464	0.408	0.403	0.372	0.352	0.489	0.378	0.468	0.471	0.985	1.01	0.988	0.881	0.966	0.407
NCI-H1650	0.462	0.424	0.599	0.472	0.432	0.295		0.307	0.264	0.28	0.589	0.553	0.487	0.545	0.907		0.8	0.612	0.796	
